Measured values as given in US8178506B2, “Oligomeric compounds and compositions for use in modulation of small non-coding RNAs” (Regulus Therapeutics Inc., priority 2003, dated 2012).

Tests used:
A549 cells = assay: Cell cycle assay in A549 cells; type: cell-based, human; conditions: A549 cells, 24 hours, relative to the untreated control cells in that phase
Description: In accordance with the present invention, certain oligomeric compounds targeting miRNAs were selected for dose response studies. Using the cell cycle assay described above, the cell cycle profiles of HeLa or A549 cells treated with varying concentrations of oligomeric compounds of the present invention were assessed.
Concomittent decreases in the percentage of cells in G1-phase of the cell cycle and increases in the percentage of hypodiploid (subG1) cells were also observed.
In a further study, A549 cells were treated with 25-, 50-, 100- or 150 nM of the oligomeric compounds ISIS Numbers 338637 (SEQ ID NO: 464) targeted against mir-96, and ISIS 338769 (SEQ ID NO: 596) targeted against mir-130b, ISIS 338836 (SEQ ID NO: 663) targeted against mir-23a, and ISIS 340350 (SEQ ID NO: 855) targeted against mir-95 (Mourelatos). Cells treated with increasing concentrations of oligomeric compounds were compared to untreated cells, to assess the dose-responsiveness of the observed delay or arrest. The random-mer ISIS 29848 was used as a negative control. Cells were prepared for flow cytometry 24-hours after oligonucleotide treatment. Results of these dose response studies are shown in Table 34, where data are expressed as percentage of cells in each phase relative to the untreated control cells in that phase.

ERK5 protein = assay: Immunoblot of ERK5 protein in differentiating adipocytes; type: cell-based, human; conditions: differentiating adipocytes 7- and 10-days post-differentiation, 250 nM
Description: When miRNAs have effects on the expression of downstream genes or proteins encoded by these genes, it is advantageous to measure the protein levels of those gene products, and to do this, western blot (immunoblot) analysis is employed. Immunoblot analysis is carried out using standard methods. Briefly, preadipocytes and differentiating adipocytes were cultured as described previously, and differentiating adipocytes are sampled at several timepoints after stimulation of differentiation. Cells were treated with 250 nM oligomeric compounds and harvested 16-20 h after oligomeric compound treatment. Cells were washed, lysed in RIPA buffer with protease inhibitor cocktail (Roche Diagnostics Corporation, Indianapolis, Ind.), suspended in Laemmli buffer (20 ul/well), boiled for 5 minutes and loaded onto either an 8% SDS-PAGE or a 4-20% gradient SDS-PAGE gel. Gels are run for approximately 1.5 hours at 150 V, and transferred to PVDF membrane for western blotting. […] Bands are visualized and quantitated using a PHOSPHORIMAGER™ (Molecular Dynamics, Sunnyvale Calif.) or the ChemiDoc™ system (Bio-Rad Laboratories, Inc., Hercules, Calif.). Thus, the effects of treatment of many cell types (including, but not limited to, preadipocytes, differentiating adipocytes, HeLa, T-24 and A549 cells) with oligomeric compounds of the present invention on the levels of gene expression products can be assessed. […]

340350 (antisense TGCTCAATAAATACCCGTTGAA; all 2'-MOE, all phosphorothioate, methylation of C not given here) [compound 340350]
% cells in cell cycle phase: G1 (A549 cells; 25 nM): 102% | % cells in cell cycle phase: G2/M (A549 cells; 25 nM): 95% | % cells in cell cycle phase: S (A549 cells; 25 nM): 100% | % cells in cell cycle phase: aneuploid (A549 cells; 25 nM): 120% | % cells in cell cycle phase: subG1 (A549 cells; 25 nM): 91% | % cells in cell cycle phase: G1 (A549 cells; 50 nM): 128% | % cells in cell cycle phase: G2/M (A549 cells; 50 nM): 126% | % cells in cell cycle phase: S (A549 cells; 50 nM): 67% | % cells in cell cycle phase: aneuploid (A549 cells; 50 nM): 80% | % cells in cell cycle phase: subG1 (A549 cells; 50 nM): 158% | % cells in cell cycle phase: G1 (A549 cells; 100 nM): 125% | % cells in cell cycle phase: G2/M (A549 cells; 100 nM): 155% | % cells in cell cycle phase: S (A549 cells; 100 nM): 60% | % cells in cell cycle phase: aneuploid (A549 cells; 100 nM): 107% | % cells in cell cycle phase: subG1 (A549 cells; 100 nM): 267% | % cells in cell cycle phase: G1 (A549 cells; 150 nM): 128% | % cells in cell cycle phase: G2/M (A549 cells; 150 nM): 211% | % cells in cell cycle phase: S (A549 cells; 150 nM): 40% | % cells in cell cycle phase: aneuploid (A549 cells; 150 nM): 108% | % cells in cell cycle phase: subG1 (A549 cells; 150 nM): 402%

TGAGCTACAGTGCTTCATCTCA [ISIS 327901] (chemistry not given here) [uniform 2′-MOE PS; targets mir-143]
ERK5 protein levels vs pre-adipocytes or untreated differentiating adipocytes (ERK5 protein): 2-2.5 fold
